Laboratory results as given in patent publication US5892029A, “3-hydroxy-2(1H)-pyridinone chelating agents” (priority 1997, dated 1999).
Read-outs that look alike come from different tables or passages of the source.

Experiments:
[1] = 30 μmol/kg i.p. at 1 h; reported previously (footnote e); cited from earlier work
[2] = assay type: in vivo, mice
Description: The test of acute toxicity of these novel ligands was carried out as follows. […] The ligand was dissolved in 0.5 to 1.0 ml of saline at pH 7 to 8. After a period of observation, the mice were killed, selected tissues were removed and fixed for histopathological examination,and unusual findings at autopsy were recorded.

[3] = Liquid/liquid extraction of Pu(IV) from aqueous solution (Tables 7 and 8)
Description: Liquid/liquid extractions were performed with the radioactive plutonium isotope ^242 Pu at the Lawrence Livermore National Laboratory's Glenn T. Seaborg Institute for Transactinium Science, Livermore, Calif. The aqueous phase contained ^242 Pu, while the organic phases contained 3,2-HOPO ligands at 2-5 mM concentration. Kinetic studies were the primary method used to determine the efficacy of the specific ligand in organic solvent. Generally, five microcentrifuge tubes were prepared with the same organic and aqueous phases, and shaken with a vortex-style mixer for 1, 5, 10, and 20 minutes. After mixing, an aliquot of each phase was pipetted from the tube into a scintillation vial, mixed with a scintillation cocktail, and scintillation counted to determine the amount of the radioactive species present in each phase after extraction.

[4] = protocol IA: 100 μmol/kg × 2 daily, 6 d, two moribund mice autopsied on d 3
[5] = protocol IA: 100 μmol/kg × 2 daily, 3 d, mean ± SD
[6] = protocol IA: 100 μmol/kg × 2 daily, 11 d, mean ± SD
[7] = protocol I: 100 μmol/kg × 10 daily i.p., 11 d, mean ± SD
[8] = protocol I: 100 μmol/kg × 10 daily i.p., 21 d, mean ± SD
[9] = protocol II: 500 μmol/kg × 2 in 8 h i.p., 8 d, mean ± SD
[10] = octanol, 0.10M aqueous, 1.0 min
[11] = octanol, 0.10M aqueous, 5.0 min
[12] = octanol, 0.10M aqueous, 10.0 min
[13] = octanol, 0.10M aqueous, 20.0 min
[14] = octanol, 5.0M aqueous, 10.0 min
[15] = octanol, 5.0M aqueous, 20.0 min

## O=C(NCCCN(CCCCN(CCCNC(=O)c1cccc(=O)n1O)C(=O)c1cccc(=O)n1O)C(=O)c1cccc(=O)n1O)c1cccc(=O)n1O [3,4,3-LI(1,2-HOPO)]
[1]
  238Pu excreta: feces and GI contents: 57% of injected ^238 Pu
  238Pu excreta: urine 0-24 h: 23% of injected ^238 Pu
  238Pu in kidneys at 24 h: 0.2% of injected ^238 Pu
  238Pu in liver at 24 h: 8.9 ± 1.7% of injected ^238 Pu
  238Pu in skeleton at 24 h: 7.5 ± 0.7% of injected ^238 Pu
  238Pu in soft tissue at 24 h: 1.6 ± 0.6% of injected ^238 Pu
  238Pu in whole body at 24 h: 18 ± 1.7% of injected ^238 Pu

## O=C(NCCCCN(CCCNC(=O)c1cccc(=O)n1O)C(=O)c1cccc(=O)n1O)c1cccc(=O)n1O [3,4-LI(1,2-HOPO)]
[1]
  238Pu excreta: feces and GI contents: 58% of injected ^238 Pu
  238Pu excreta: urine 0-24 h: 7.9% of injected ^238 Pu
  238Pu in kidneys at 24 h: 0.6% of injected ^238 Pu
  238Pu in liver at 24 h: 18 ± 4.8% of injected ^238 Pu
  238Pu in skeleton at 24 h: 9.9 ± 3.6% of injected ^238 Pu
  238Pu in soft tissue at 24 h: 5.8 ± 1.3% of injected ^238 Pu
  238Pu in whole body at 24 h: 34 ± 9.2% of injected ^238 Pu

## Cn1ccc(C(=O)NCCCNC(=O)c2ccn(C)c(=O)c2O)c(O)c1=O [3-LI-Me-3,2-HOPO, 1,3-bis[(3-hydroxy-1-methyl-2-oxo-1,2-dihydropyridin-4-yl)carboxamido] propane]
[2]; mouse, in vivo
  toxicity / mortality (in words): all mice were dead by d 3
[2]; protocol IA: 100 μmol/kg × 2 daily, 6 d, of 10 mice
  no. of survivors: 0
[2]; [4]
  body weight: 89 ± 4 percent control
  kidney weight: 222 ± 29 percent control
  plasma urea N: > 1800 percent control

## Cn1ccc(C(=O)NCCCCCCNC(=O)c2ccn(C)c(=O)c2O)c(O)c1=O [6-LI-Me-3,2-HOPO, 1,6-bis[(3-hydroxy-1-methyl-2-oxo-1,2-dihydropyridin-4-yl)carboxamido]hexane]
[2]; [5]
  body weight: 83 ± 3 percent control
  kidney weight: 132 ± 11 percent control
  plasma urea N: 343 ± 140 percent control
[2]; protocol IA: 100 μmol/kg × 2 daily, 3 d, of 5 mice
  no. of survivors: 5
[2]; [6]
  body weight: 101 ± 5 percent control
  kidney weight: 112 ± 13 percent control
  plasma urea N: 92 ± 6 percent control
[2]; protocol IA: 100 μmol/kg × 2 daily, 11 d, of 5 mice
  no. of survivors: 3

## CC(=O)N(O)CCCCCNC(=O)CCC(=O)N(O)CCCCCNC(=O)CCC(=O)N(O)CCCCCN [DFO, desferrioxamine B]
[1]
  238Pu excreta: feces and GI contents: 15.1% of injected ^238 Pu
  238Pu excreta: urine 0-24 h: 38% of injected ^238 Pu
  238Pu in kidneys at 24 h: 1.8% of injected ^238 Pu
  238Pu in liver at 24 h: 19 ± 13% of injected ^238 Pu
  238Pu in skeleton at 24 h: 20 ± 11% of injected ^238 Pu
  238Pu in soft tissue at 24 h: 4.5 ± 1.4% of injected ^238 Pu
  238Pu in whole body at 24 h: 45 ± 2.5% of injected ^238 Pu

## CC(=O)N(O)CCCCCNC(=O)CCC(=O)N(O)CCCCCNC(=O)CCC(=O)N(O)CCCCCNC(=O)c1cccc(=O)n1O [DFO-(1,2-HOPO)]
[1]
  238Pu excreta: feces and GI contents: 46.7% of injected ^238 Pu
  238Pu excreta: urine 0-24 h: 9.5% of injected ^238 Pu
  238Pu in kidneys at 24 h: 0.1% of injected ^238 Pu
  238Pu in liver at 24 h: 5.1 ± 2.2% of injected ^238 Pu
  238Pu in skeleton at 24 h: 6.0 ± 0.5% of injected ^238 Pu
  238Pu in soft tissue at 24 h: 2.3 ± 0.5% of injected ^238 Pu
  238Pu in whole body at 24 h: 13 ± 2.9% of injected ^238 Pu

## CC(=O)N(O)CCCCCNC(=O)CCC(=O)N(O)CCCCCNC(=O)CCC(=O)N(O)CCCCCNC(=O)c1ccn(C)c(=O)c1O [DFO-Me-3,2-HOPO]
[1]
  238Pu excreta: feces and GI contents: 26.4% of injected ^238 Pu
  238Pu excreta: urine 0-24 h: 21% of injected ^238 Pu
  238Pu in kidneys at 24 h: 3.0% of injected ^238 Pu
  238Pu in liver at 24 h: 13 ± 3.5% of injected ^238 Pu
  238Pu in skeleton at 24 h: 17 ± 2.4% of injected ^238 Pu
  238Pu in soft tissue at 24 h: 19 ± 3.0% of injected ^238 Pu
  238Pu in whole body at 24 h: 53 ± 3.4% of injected ^238 Pu

## Cn1ccc(C(=O)NCCN(CCNC(=O)c2ccn(C)c(=O)c2O)CCN(CCNC(=O)c2ccn(C)c(=O)c2O)CCNC(=O)c2ccn(C)c(=O)c2O)c(O)c1=O [H(2,2)-Me-3,2-HOPO, N,N,N',N'-tetrakis[(3-hydroxy-1-methyl-2-oxo-1,2-dihydropyridin-4-yl)carboxamido-ethyl]-ethylenediamine]
[2]; [7]
  body weight: 92 ± 6 percent control
  plasma urea N: 223 ± 28 percent control
[2]; protocol I: 100 μmol/kg × 10 daily i.p., 11 d, of 5 mice
  no. of survivors: 5
[2]; [8]
  body weight: 87 ± 9 percent control
  plasma urea N: 225 ± 188 percent control
[2]; protocol I: 100 μmol/kg × 10 daily i.p., 21 d, of 5 mice
  no. of survivors: 5
[2]; [9]
  body weight: 94 ± 6 percent control
  plasma urea N: 169 ± 10 percent control
[2]; protocol II: 500 μmol/kg × 2 in 8 h i.p., 8 d, of 19 (TREN) or 10 (H(2,2)) mice
  no. of survivors: 3

## O=C(NCc1cc(CNC(=O)c2cccc(=O)n2O)cc(CNC(=O)c2cccc(=O)n2O)c1)c1cccc(=O)n1O [ME-(1,2-HOPO)]
[1]
  238Pu excreta: feces and GI contents: 43% of injected ^238 Pu
  238Pu excreta: urine 0-24 h: 9.6% of injected ^238 Pu
  238Pu in kidneys at 24 h: 1.8% of injected ^238 Pu
  238Pu in liver at 24 h: 18 ± 6.3% of injected ^238 Pu
  238Pu in skeleton at 24 h: 17 ± 2.5% of injected ^238 Pu
  238Pu in soft tissue at 24 h: 10 ± 1.8% of injected ^238 Pu
  238Pu in whole body at 24 h: 47 ± 9.4% of injected ^238 Pu

## CCCCCCCCCCNC(=O)c1ccn(C)c(=O)c1O [Me-2-HOPO-Decylamide]
[3]; MIBK, 0.10M aqueous, 1.0 min
  % Pu(IV) Extracted: 98.2 ± 4.5%
  Partition Coefficient: 53.63 ± 1.60
[3]; MIBK, 0.10M aqueous, 5.0 min
  % Pu(IV) Extracted: 95.9 ± 4.4%
  Partition Coefficient: 23.40 ± 1.14
[3]; MIBK, 0.10M aqueous, 10.0 min
  % Pu(IV) Extracted: 97.7 ± 4.5%
  Partition Coefficient: 42.43 ± 1.43
[3]; MIBK, 0.10M aqueous, 20.0 min
  % Pu(IV) Extracted: 93.2 ± 4.3%
  Partition Coefficient: 13.63 ± 0.82
[3]; MIBK, 5.0M aqueous, 1.0 min
  % Pu(IV) Extracted: 97.9 ± 4.5%
  Partition Coefficient: 46.00 ± 1.48
[3]; MIBK, 5.0M aqueous, 5.0 min
  % Pu(IV) Extracted: 97.9 ± 4.5%
  Partition Coefficient: 46.62 ± 1.43
[3]; MIBK, 5.0M aqueous, 10.0 min
  % Pu(IV) Extracted: 95.8 ± 4.4%
  Partition Coefficient: 22.87 ± 1.07
[3]; MIBK, 5.0M aqueous, 20.0 min
  % Pu(IV) Extracted: 81.9 ± 3.8%
  Partition Coefficient: 4.52 ± 0.35
[3]; [10]
  % Pu(IV) Extracted: 68.9 ± 3.3%
  Partition Coefficient: 2.22 ± 0.19
[3]; [11]
  % Pu(IV) Extracted: 96.2 ± 4.5%
  Partition Coefficient: 25.39 ± 1.12
[3]; [12]
  % Pu(IV) Extracted: 95.2 ± 4.4%
  Partition Coefficient: 19.71 ± 1.00
[3]; [13]
  % Pu(IV) Extracted: 92.4 ± 4.3%
  Partition Coefficient: 12.11 ± 0.75
[3]; octanol, 5.0M aqueous, 1.0 min
  % Pu(IV) Extracted: 98.3 ± 4.6%
  Partition Coefficient: 56.64 ± 1.58
[3]; octanol, 5.0M aqueous, 5.0 min
  % Pu(IV) Extracted: 96.4 ± 4.5%
  Partition Coefficient: 26.98 ± 1.13
[3]; [14]
  % Pu(IV) Extracted: 93.6 ± 4.4%
  Partition Coefficient: 14.74 ± 0.83
[3]; [15]
  % Pu(IV) Extracted: 88.3 ± 4.1%
  Partition Coefficient: 7.51 ± 0.53

## CCCCCCCCNC(=O)c1ccn(C)c(=O)c1O [Me-2-HOPO-Octylamide]
[3]; MIBK, 0.10M aqueous, 1.0 min
  % Pu(IV) Extracted: 95.6 ± 4.4%
  Partition Coefficient: 21.90 ± 1.09
[3]; MIBK, 0.10M aqueous, 5.0 min
  % Pu(IV) Extracted: 91.8 ± 4.3%
  Partition Coefficient: 11.22 ± 0.73
[3]; MIBK, 0.10M aqueous, 10.0 min
  % Pu(IV) Extracted: 96.8 ± 4.5%
  Partition Coefficient: 30.07 ± 1.26
[3]; MIBK, 0.10M aqueous, 20.0 min
  % Pu(IV) Extracted: 96.5 ± 4.5%
  Partition Coefficient: 27.56 ± 0.76
[3]; MIBK, 5.0M aqueous, 1.0 min
  % Pu(IV) Extracted: 98.8 ± 4.6%
  Partition Coefficient: 79.22 ± 1.71
[3]; MIBK, 5.0M aqueous, 5.0 min
  % Pu(IV) Extracted: 98.2 ± 4.6%
  Partition Coefficient: 53.99 ± 1.54
[3]; MIBK, 5.0M aqueous, 10.0 min
  % Pu(IV) Extracted: 96.4 ± 4.5%
  Partition Coefficient: 26.82 ± 1.18
[3]; MIBK, 5.0M aqueous, 20.0 min
  % Pu(IV) Extracted: 83.9 ± 3.9%
  Partition Coefficient: 5.20 ± 0.40
[3]; [10]
  % Pu(IV) Extracted: 94.4 ± 4.4%
  Partition Coefficient: 16.83 ± 0.89
[3]; [11]
  % Pu(IV) Extracted: 94.5 ± 4.5%
  Partition Coefficient: 17.10 ± 1.12
[3]; [12]
  % Pu(IV) Extracted: 92.1 ± 4.3%
  Partition Coefficient: 11.71 ± 0.72
[3]; [13]
  % Pu(IV) Extracted: 91.2 ± 4.2%
  Partition Coefficient: 10.32 ± 0.67
[3]; octanol, 5.0M aqueous, 1.0 min
  % Pu(IV) Extracted: 97.8 ± 4.1%
  Partition Coefficient: 44.22 ± 1.43
[3]; octanol, 5.0M aqueous, 5.0 min
  % Pu(IV) Extracted: 97.4 ± 4.5%
  Partition Coefficient: 36.91 ± 1.30
[3]; [14]
  % Pu(IV) Extracted: 95.2 ± 4.4%
  Partition Coefficient: 19.78 ± 0.98
[3]; [15]
  % Pu(IV) Extracted: 91.4 ± 4.3%
  Partition Coefficient: 10.69 ± 0.67
